# From patent US20020072530A1, “Indole and benzimidazole inhibitors of factor Xa” (priority 2000, published 2002)
# Like-named read-outs stand apart in the source and are kept apart here.
# What was measured:
# Assay type in all cases: biochemical
# factor Xa = factor Xa (Homo sapiens, UniProt P00742); assay: Factor Xa amidolytic assay (chromogenic substrate S-2765)
# Method: (§1) The compounds of the present invention are dissolved in buffer to give solutions containing concentrations such that assay concentrations range from about 0 to about 100 μM. In the assays for thrombin, prothrombinase and factor Xa, a synthetic chromogenic substrate is added to a solution containing test compound and the enzyme of interest and the residual catalytic activity of that enzyme is determined spectrophotometrically. The IC50 of a compound is determined from the substrate turnover. The IC50 is the concentration of test compound giving about 50% inhibition of the substrate turnover.
# (§2) The factor Xa and thrombin assays were performed at room temperature, in 0.02 M Tris-HCl buffer, pH 7.5, containing 0.15 M NaCl. The rates of hydrolysis of the para-nitroanilide substrate S-2765 (Chromogenix) for factor Xa, and the substrate Chromozym TH (Boehringer Mannheim) for thrombin following preincubation of the enzyme with inhibitor for 5 minutes at room temperature, and were determined using the Softmax 96-well plate reader (Molecular Devices), monitored at 405 nm to measure the time dependent appearance of p-nitroaniline.
# thrombin = thrombin (Homo sapiens, UniProt P00734); assay: Thrombin amidolytic assay (chromogenic substrate Chromozym TH)
# Method: as §1, §2
# prothrombinase complex = prothrombinase complex (Homo sapiens, UniProt P00742); assay: Prothrombinase inhibition assay in a plasma free system; settings: table of Examples 6-18; unit inferred; read-out: IIASE (IC50)
# prothrombinase complex, sequence (P00742 235-488 limits assumed): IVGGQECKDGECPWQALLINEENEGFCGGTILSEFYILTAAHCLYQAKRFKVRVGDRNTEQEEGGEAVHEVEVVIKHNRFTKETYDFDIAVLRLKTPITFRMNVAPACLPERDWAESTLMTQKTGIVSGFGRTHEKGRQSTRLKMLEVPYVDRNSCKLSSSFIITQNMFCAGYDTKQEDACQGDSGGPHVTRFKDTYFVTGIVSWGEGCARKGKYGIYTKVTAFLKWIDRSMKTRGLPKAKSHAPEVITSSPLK
# prothrombinase complex, sequence (P00742 41-179 limits assumed): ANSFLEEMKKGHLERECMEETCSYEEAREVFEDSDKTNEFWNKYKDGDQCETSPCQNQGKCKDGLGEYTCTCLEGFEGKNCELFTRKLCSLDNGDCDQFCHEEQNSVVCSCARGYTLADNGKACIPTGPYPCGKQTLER
# prothrombinase complex, sequence (P12259 29-737 partner limits assumed): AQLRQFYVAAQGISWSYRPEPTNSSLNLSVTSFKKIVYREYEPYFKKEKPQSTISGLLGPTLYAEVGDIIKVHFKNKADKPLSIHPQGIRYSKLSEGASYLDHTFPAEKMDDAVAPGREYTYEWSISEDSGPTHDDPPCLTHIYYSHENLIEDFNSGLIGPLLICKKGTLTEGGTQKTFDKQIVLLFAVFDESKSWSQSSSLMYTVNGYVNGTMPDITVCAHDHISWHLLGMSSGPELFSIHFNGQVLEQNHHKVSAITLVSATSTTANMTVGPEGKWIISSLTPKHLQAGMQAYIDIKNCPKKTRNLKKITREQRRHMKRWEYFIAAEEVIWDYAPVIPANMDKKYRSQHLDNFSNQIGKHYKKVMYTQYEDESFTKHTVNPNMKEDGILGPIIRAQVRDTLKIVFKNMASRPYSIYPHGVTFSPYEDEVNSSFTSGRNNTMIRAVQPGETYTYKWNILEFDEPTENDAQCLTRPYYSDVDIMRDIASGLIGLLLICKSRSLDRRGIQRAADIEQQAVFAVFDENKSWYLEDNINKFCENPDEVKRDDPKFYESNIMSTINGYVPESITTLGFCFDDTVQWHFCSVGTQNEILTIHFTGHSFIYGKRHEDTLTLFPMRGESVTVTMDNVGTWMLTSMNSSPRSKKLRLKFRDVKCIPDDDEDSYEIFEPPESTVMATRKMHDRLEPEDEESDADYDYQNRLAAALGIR
# prothrombinase complex, sequence (P12259 1574-2224 partner limits assumed): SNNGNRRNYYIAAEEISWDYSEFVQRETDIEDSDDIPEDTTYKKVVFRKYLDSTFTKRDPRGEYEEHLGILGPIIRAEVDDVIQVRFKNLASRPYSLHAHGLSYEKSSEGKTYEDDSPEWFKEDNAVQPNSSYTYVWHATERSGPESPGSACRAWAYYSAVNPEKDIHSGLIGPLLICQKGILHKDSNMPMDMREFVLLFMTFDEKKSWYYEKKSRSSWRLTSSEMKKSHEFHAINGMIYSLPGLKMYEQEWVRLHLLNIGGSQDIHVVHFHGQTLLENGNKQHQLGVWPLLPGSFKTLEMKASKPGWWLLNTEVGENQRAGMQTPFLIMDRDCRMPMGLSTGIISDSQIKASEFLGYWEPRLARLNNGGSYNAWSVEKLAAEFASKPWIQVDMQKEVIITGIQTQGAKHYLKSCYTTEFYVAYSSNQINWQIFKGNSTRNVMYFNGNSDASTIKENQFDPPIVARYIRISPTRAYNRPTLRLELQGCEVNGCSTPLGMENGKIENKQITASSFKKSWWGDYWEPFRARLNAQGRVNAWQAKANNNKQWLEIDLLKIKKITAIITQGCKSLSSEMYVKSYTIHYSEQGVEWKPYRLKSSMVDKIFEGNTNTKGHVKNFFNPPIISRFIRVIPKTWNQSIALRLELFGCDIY
# Method: as §1
# The prothrombinase inhibition assay was performed in a plasma free system with modifications to the method described by Sinha, U. et al., Thromb. Res., 75, 427-436 (1994). Specifically, the activity of the prothrombinase complex was determined by measuring the time course of thrombin generation using the p-nitroanilide substrate Chromozym TH. The assay consists of preincubation (5 minutes) of selected compounds to be tested as inhibitors with the complex formed from factor Xa (0.5 nM), factor Va (2 nM), phosphatidyl serine:phosphatidyl choline (25:75, 20 μM) in 20 mM Tris-HCl buffer, pH 7.5, containing 0.15 M NaCl, 5 mM CaCl2 and 0.1% bovine serum albumin. Aliquots from the complex-inhibitor mixture were added to prothrombin (1 nM) and Chromozym TH (0.1 mM). The rate of substrate cleavage was monitored at 405 nm for two minutes. Eight different concentrations of inhibitor were assayed in duplicate. A standard curve of thrombin generation by an equivalent amount of untreated complex was used for determination of percent inhibition.
# [1] = table of Examples 6-18, unit inferred, read-out: XA (IC50)
# [2] = table of Examples 6-18, unit inferred, read-out: IIA (IC50)
# [3] = Table 5, read-out: Inhibitory Activity (IC50) Factor Xa
# [4] = Table 5, read-out: Inhibitory Activity (IC50) Thrombin
# factor Xa, sequence (P00742 235-488 limits assumed): as the sequence (P00742 235-488 limits assumed) above
# factor Xa, sequence (P00742 41-179 limits assumed): as the sequence (P00742 41-179 limits assumed) above
SMILES,IC50 (factor Xa; [1]) [nM],IC50 (thrombin; [2]) [nM],IC50 (prothrombinase complex) [nM],IC50 (factor Xa; [3]) [nM],IC50 (thrombin; [4]) [nM]
CC(=N)N1CCC(Oc2ccc3nc(C(C)C)n(Cc4cccc(-c5cccc(C(=N)N)c5)c4)c3c2)CC1 [Example 9],658,9610,9040,–,–
CC(C)c1nc2cc(OC3CCN(C)CC3)ccc2n1Cc1cccc(-c2cccc(C(=N)N)c2)c1 [Example 8],32.2,29000,375,–,–
CCn1c(Cn2c(C(C)C)nc3ccc(OC4CCN(C(C)=N)CC4)cc32)cc2ccc(C(=N)N)cc21 [Example 6],148,16.4,139,–,–
CCn1c(Cn2c(C(C)C)nc3cc(OC4CCN(C(C)=N)CC4)ccc32)cc2ccc(C(=N)N)cc21 [Example 7],1.2,805,9.67,1.2,805

# The next lines start with the values.
IC50 (factor Xa; [1]) [nM],IC50 (thrombin; [2]) [nM],IC50 (prothrombinase complex) [nM],IC50 (factor Xa; [3]) [nM],IC50 (thrombin; [4]) [nM],SMILES
5.73,26300,2.56,5.73,26300,CC(=N)N1CCC(Oc2ccc3c(c2)nc(C(C)C)n3Cc2cccc(-c3cccc(C(=N)N)c3)c2)CC1 [Example 10]
10.4,–,17,–,–,CC(=N)N1CCC(Oc2ccc3nc(C(C)C)n(Cc4ccc5ccc(C(=N)N)cc5c4)c3c2)CC1 [Example 11]
18,1360,167,18,1300,CCOC(=O)c1nc2cc(OC3CCN(C(C)=N)CC3)ccc2n1Cc1cc2ccc(C(=N)N)cc2n1CC [Example 18]
